Measurements: US20200368247A1, “CENICRIVIROC FOR THE TREATMENT OF FIBROSIS” (Tobira Therapeutics, Inc., priority 2014, published 2020)

From the text: Subjects with a history of HIV-2, hepatitis B and/or C, cirrhosis of the liver or any known active or chronic active liver disease were excluded from the study.
Most AEs were mild or moderate (Grade 1 or Grade 2). […] None of the Grade ≥3 AEs (preferred terms) were reported in more than 1 subject. Table 28 provides an overview of deaths, SAES, AEs, AEs by severity, AEs related to study medication, and AE leading to discontinuation.

O=C1Nc2ccc(Cl)cc2[C@@](C#CC2CC2)(C(F)(F)F)O1 [EFV, efavirenz, reference compound]
(18%): Rash, % (human, in vivo, 48 week)
21%: AEs leading to discontinuation of study medication, % (human, in vivo, 48 weeks)
(7%): Upper respiratory tract infection, % (human, in vivo, 48 week)
(21%): Nausea, % (human, in vivo, 48 week) | Abnormal dreams, % (human, in vivo, 48 weeks)
(29%): Dizziness, % (human, in vivo, 48 weeks)
1 n: SAE: Suicidal ideation (All CVC (N = 115), EFV (N = 28), through Week 48) | Grade 3 or 4 AE: Suicidal ideation (All CVC (N = 115), EFV (N = 28; Grade 4 event)) | AE leading to discontinuation: Abnormal dreams (human, in vivo, 48 week) | AE leading to discontinuation: Anxiety (human, in vivo, 48 week) | AE leading to discontinuation: Depression (human, in vivo, 48 week) | AE leading to discontinuation: Dermatitis allergic (human, in vivo, 48 week) | AE leading to discontinuation: Ear and labyrinth disorders (human, in vivo, 48 week) | AE leading to discontinuation: Rash (human, in vivo, 48 week) | AE leading to discontinuation: Tachyphrenia (human, in vivo, 48 week) | AE leading to discontinuation: Tinnitus (human, in vivo, 48 week) | AE leading to discontinuation: Disturbance in attention (human, in vivo, 48 weeks) | AE leading to discontinuation: Eye disorders (human, in vivo, 48 weeks) | AE leading to discontinuation: Gastrointestinal disorders (human, in vivo, 48 weeks) | AE leading to discontinuation: Hypoaesthesia (human, in vivo, 48 weeks) | AE leading to discontinuation: Musculoskeletal and connective tissue disorders (human, in vivo, 48 weeks) | AE leading to discontinuation: Musculoskeletal discomfort (human, in vivo, 48 weeks) | AE leading to discontinuation: Nausea (human, in vivo, 48 weeks) | AE leading to discontinuation: Photophobia (human, in vivo, 48 weeks) | Any Grade 4 AE (human, in vivo, 48 weeks) | Any SAE (human, in vivo, 48 weeks) | Grade 3 or 4 AE: Depression (human, in vivo, 48 weeks) | Grade 3 or 4 AE: Dermatitis allergic (human, in vivo, 48 weeks) | Grade 3 or 4 AE: Ear and labyrinth disorders (human, in vivo, 48 weeks) | Grade 3 or 4 AE: Investigations (human, in vivo, 48 weeks) | Grade 3 or 4 AE: Psychiatric disorders (human, in vivo, 48 weeks) | Grade 3 or 4 AE: Skin and subcutaneous tissue disorders (human, in vivo, 48 weeks) | Grade 3 or 4 AE: Tinnitus (human, in vivo, 48 weeks) | Grade 3 or 4 AE: Weight decreased (human, in vivo, 48 weeks) | SAE: Depression (human, in vivo, 48 weeks) | SAE: Psychiatric disorders (human, in vivo, 48 weeks) | Subjects with serious AEs (human, in vivo, 48 weeks)
(14%): Insomnia, % (human, in vivo, 48 weeks) | Lymphadenopathy, % (human, in vivo, 48 weeks)
27 n: Subjects with ≥1 AE (human, in vivo, 48 weeks)
0 n: Deaths (All CVC (N = 115), EFV (N = 28)) | AE leading to discontinuation: Aggression (human, in vivo, 48 week) | AE leading to discontinuation: Thinking abnormal (human, in vivo, 48 week) | Subjects with AEs, by worst grade severity: Grade 4 (human, in vivo, 48 week) | AE leading to discontinuation: General disorders and administration site conditions (human, in vivo, 48 weeks) | AE leading to discontinuation: Malaise (human, in vivo, 48 weeks) | Grade 3 or 4 AE: Abdominal pain (human, in vivo, 48 weeks) | Grade 3 or 4 AE: Blindness unilateral (human, in vivo, 48 weeks) | Grade 3 or 4 AE: Blood creatine phosphokinase increased (human, in vivo, 48 weeks) | Grade 3 or 4 AE: Cardiac disorders (human, in vivo, 48 weeks) | Grade 3 or 4 AE: Corneal infection (human, in vivo, 48 weeks) | Grade 3 or 4 AE: Eye disorders (human, in vivo, 48 weeks) | Grade 3 or 4 AE: Gastrointestinal disorders (human, in vivo, 48 weeks) | Grade 3 or 4 AE: General disorders and administration site conditions (human, in vivo, 48 weeks) | Grade 3 or 4 AE: Infections and infestations (human, in vivo, 48 weeks) | Grade 3 or 4 AE: Palpitations (human, in vivo, 48 weeks) | Grade 3 or 4 AE: Pyrexia (human, in vivo, 48 weeks) | Grade 3 or 4 AE: Stress (human, in vivo, 48 weeks) | SAE: Blindness unilateral (human, in vivo, 48 weeks) | SAE: Corneal infection (human, in vivo, 48 weeks) | SAE: Eye disorders (human, in vivo, 48 weeks) | SAE: Gastroenteritis (human, in vivo, 48 weeks) | SAE: Infections and infestations (human, in vivo, 48 weeks)
13 n: Subjects with AEs, by worst grade severity: Grade 2 (human, in vivo, 48 week)
3 n: AE leading to discontinuation: Insomnia (human, in vivo, 48 week) | AE leading to discontinuation: Psychiatric disorders (human, in vivo, 48 week) | Subjects with AEs, by worst grade severity: Grade 3 (human, in vivo, 48 week) | Any Grade 3 AE (human, in vivo, 48 weeks)
2 n: AE leading to discontinuation: Skin and subcutaneous tissue disorders (human, in vivo, 48 week) | AE leading to discontinuation: Dizziness (human, in vivo, 48 weeks)
10 n: Subjects with AEs, by worst grade severity: Grade 1 (human, in vivo, 48 week)
6 subjects: AEs leading to discontinuation of study medication, subjects (human, in vivo, 48 weeks)
(11%): Depression, % (human, in vivo, 48 week) | Diarrhoea, % (human, in vivo, 48 week) | Syphilis, % (human, in vivo, 48 week)
6 n: Subjects with AEs leading to discontinuation of study medication (human, in vivo, 48 week) | Any AE leading to discontinuation of study drug (human, in vivo, 48 weeks)
(4%): Fatigue, % (human, in vivo, 48 week) | Nasopharyngitis, % (human, in vivo, 48 weeks)
4 n: AE leading to discontinuation: Nervous system disorders (human, in vivo, 48 weeks)
20 n: Subjects with AEs related to study medication (human, in vivo, 48 week)
